Experiments:
Type in all cases: in vivo
Aonidiella aurantii [1] = test: Example 15: orange trees treated against Aonidiella aurantii; conditions: on fruits, % a.i.: Tokuthion 0.048 (once), I-9 0.0096, I-2 0.0096 (two applications)
Procedure: In three replications, 3-year-old orange trees of the cultivar “Midnight Valenzia” are treated against Aonidiella aurantii. Two applications are carried out at an interval of 72 days, using a motor-operated knapsack sprayer. Here, the active compounds Example (I-9) (240 SC) and Example (I-2) (240 SC) in a tank mix with 0.1% a.i. of rapeseed oil methyl ester (500 EW) at the stated application rate are tested against the standard Tokuthion (960 EC) at the stated amounts. applied once. The application rate is 4 l of water per tree.
Evaluation is carried out 130 and 176 days after the treatment by rating the kill on the fruits.

Planococcus spp. = test: Example 29: vines treated against Planococcus spp.; conditions: larvae on grapes, rate %/1: Dursban 0.096, I-4 0.0096
Procedure: In three replications, in plots of a size of 54 m^2, about 10-year-old vines of the cultivar “Napoleon” are treated against Planococcus spp. The application is carried out using a knapsack sprayer. Here, the active compound Example (I-4) (240 SC), in a tank mix with 0.1% a.i. of rapeseed oil methyl ester (500 EW), is tested against the commercial standard Dursban (480 EC), at the stated application rates. The application rate is 864 l of water/ha. Two treatments are carried out, at an interval of 19 days.
Evaluation is carried out 16 and 38 days after the second treatment by rating the kill of the larvae on the grapes.

[2] = test system: Selenaspidius articulatus; test: Example 19: orange trees treated against Selenaspidius articulatus; conditions: 100 d after treatment, on leaves, % a.i.: methidathion 0.05, I-9 0.0288, I-4 0.0144
Procedure: In three replications, 3-year-old orange trees of the cultivar “Pera natal” are treated against Selenaspidius articulatus. The application is carried out using a motor-operated knapsack sprayer. Here, the active compounds Example (I-9) (240 SC) and Example (I-4) (240 SC) at the stated application rate are tested against the standard methidathion (400 EC) in the stated amounts, applied once. The application rate is 3.3 l of water per tree.
Evaluation is carried out 100 days after the treatment by rating the kill on the leaves.

Aonidiella aurantii [3] = test: Example 16: grapefruit tree treated against Aonidiella aurantii; conditions: on fruits, per metre crown height: Dursban 6.01 pounds/acre, I-4 72 g/ha
Procedure: In four replications, an about 10-year-old grapefruit tree of the cultivar “Rio Red” is treated against Aonidiella aurantii. The application is carried out using a motor-operated barrow-mounted sprayer. Here, the active compound Example (I-4) (240 SC) and the commercial standard Dursban (480 EC) are tested at the stated application rates. The amount of spray liquor is 5.8 gallons per tree.
Evaluation is carried out 28, 59 and 90 days after the treatment by rating the kill of the animals on the fruits.

Myzus persicae [4] = test: Example 54: bell pepper plants treated against Myzus persicae; conditions: on leaves, g a.i./ha: Provado 50, I-4 48
Procedure: In four replications, plots of a size of about 8.4 m^2 with 36 11-week-old bell pepper plants of the cultivar “Casea dura ikeda” are treated against Myzus persicae. The application is carried out using a knapsack sprayer operated with pressurized air. Here, the active compound Example (I-4) (240 SC), in a tank mix with 0.2% a.i. of rapeseed oil methyl ester (500 EW), is tested against the commercial standard Provado (200 SC), at the stated application rates. The application rate is 600 l of water/ha. There are three applications, in each case at an interval of 7 d.
Evaluation is carried out 1, 7, and 14 days after the last treatment by rating the kill of the animals on the leaves.

Saissetia oleae = test: Example 13: orange trees treated against Saissetia oleae; conditions: nymphs on leaves, g a.i./ha/m crown height: buprofezin 500, I-4 72, I-8 30
Procedure: In three replications, in each case two about 8-year-old orange trees are treated against Saissetia oleae. Here, the active compounds Example (I-4) (240 SC) and Example (I-8) (250 SC) in a tank mix with 0.2% a.i. of rapeseed oil methyl ester (500 EW) at the stated application rate are tested against the commercial standard buprofezin in a tank mix with 0.4% a.i. of Oliocin (800 EW) at the stated application rate. The application is carried out using a motor-operated knapsack sprayer. The application rate is 3000 l of water/ha. Two treatments are carried out, at an interval of 29 days.
Evaluation is carried out 24 and 44 days after the last treatment by rating the kill of the nymphs on the leaves.

Myzus persicae [5] = test: Example 48: aubergine plants treated against Myzus persicae; conditions: on leaves, rate (g of a.i./ha): pymethrozine 0.0125, I-4 0.024
Procedure: In three replications, four aubergine plants (age about 7 months) of the cultivar “Hayabusa” are treated against Myzus persicae. The application is carried out using a motor-operated knapsack sprayer. Here, the active compound Example (I-4) (240 SC), in a tank mix with 0.1% a.i. of rapeseed oil methyl ester (500 EW), and the commercial standard pymethrozine (25 WP) are tested at the stated application rates. The application rate is 3000 l of water/ha.
Evaluation is carried out 7, 14, 21 and 29 days after the treatment by rating the kill of the animals on the leaves.

Nasonovia ribisnigri = test: Example 42: head lettuce treated against Nasonovia ribisnigri; conditions: on plants, g a.i./ha: Pirimor 150, I-4 48, I-8 42
Procedure: In four replications, plots of a size of 5 m^2 with head lettuce are, two weeks after transplantation, treated against Nasonovia ribisnigri. The application is carried out using a knapsack sprayer operated with pressurized air. Here, the active compounds Example (I-4) (240 SC) and Example (I-8) (240 SC) are, in a tank mix with 0.2% a.i. of rapeseed oil methyl ester (500 EW), tested against the commercial standard Pirimor, at the stated application rates. The application rate is 500 l of water/ha.
Evaluation is carried out 7, 14 and 26 days after the treatment by rating the kill of the animals on the plants.

| SMILES | Kill (%) 130 d (Aonidiella aurantii [1]; 130 d after treatment) [%] | Kill (%) 176 d (Aonidiella aurantii [1]; 176 d after treatment) [%] | Kill (%) 16 d (Planococcus spp.; 16 d after second treatment) [%] | Kill (%) 38 d (Planococcus spp.; 38 d after second treatment) [%] | Kill (%) 100 d [2] [%] | Kill (%) 28 d (Aonidiella aurantii [3]; 28 d after treatment) [%] | Kill (%) 59 d (Aonidiella aurantii [3]; 59 d after treatment) [%] | Kill (%) 90 d (Aonidiella aurantii [3]; 90 d after treatment) [%] | Kill (%) 1 d (Myzus persicae [4]; 1 d after last of three treatments) [%] | Kill (%) 7 d (Myzus persicae [4]; 7 d after last of three treatments) [%] | Kill (%) 14 d (Myzus persicae [4]; 14 d after last of three treatments) [%] | Kill (%) 24 d (Saissetia oleae; 24 d after last of two treatments) [%] | Kill (%) 44 d (Saissetia oleae; 44 d after last of two treatments) [%] | Kill (%) 7 d (Myzus persicae [5]; 7 d after treatment) [%] | Kill (%) 14 d (Myzus persicae [5]; 14 d after treatment) [%] | Kill (%) 21 d (Myzus persicae [5]; 21 d after treatment) [%] | Kill (%) 29 d (Myzus persicae [5]; 29 d after treatment) [%] | Kill (%) 7 d (Nasonovia ribisnigri; 7 d after treatment) [%] | Kill (%) 14 d (Nasonovia ribisnigri; 14 d after treatment) [%] | Kill (%) 26 d (Nasonovia ribisnigri; 26 d after treatment) [%] |
| --- | --- | --- | --- | --- | --- | --- | --- | --- | --- | --- | --- | --- | --- | --- | --- | --- | --- | --- | --- | --- |
| CCOC(=O)OC1=C(c2cc(C)ccc2Br)C(=O)NC12CCC(OC)CC2 (centres unmarked) [Example (I-2)] | 52 | 76 |  |  |  |  |  |  |  |  |  |  |  |  |  |  |  |  |  |  |
| CCOC(=O)OC1=C(c2cc(C)ccc2C)C(=O)NC12CCC(OC)CC2 (centres unmarked) [Example (I-4)] |  |  | 94.4 | 91.9 | 70 | 92.7 | 100 | 100 | 99.1 | 98.5 | 100 | 53.5 | 56.1 | 99.7 | 99.7 | 98 | 97 | 92.3 | 95.7 | 95.1 |

Source: patent US20090012152A1, “Use of Tetramic Acid Derivatives for Controlling Insects from the Genus of the Plane Lice (Sternorrhyncha)” (Bayer CropScience Aktiengesellschaft, priority 2005, published 2009)
